1 compound from patent US20230233577A1, “17Beta-ESTRADIOL/VITAMIN C MOLECULAR COMPLEX, PREPARATION METHOD, AND USE THEREOF” (ZHEJIANG MEDICINE CO., LTD.XINCHANG PHARMACEUTICAL FACTORY, priority 2020, published 2023) can be followed below.

Type in all cases: in vivo, ICR mice
For series [1], the system named is ovariectomized female mice. The series can be described thus: Tail bleeding time (thrombosis side effect) in ovariectomized female mice. The following applies: for Bleeding time (tail, mean ± SD): ovariectomized mice, oral, 30 min after last administration, n = 11.
The test system of series [2] is ovariectomized female mice. The series can be described thus: Femoral mineral content (BMC, ash weight/dry weight) in ovariectomized female mice. The following applies: ratio femoral ash weight/dry weight, oral, 4 weeks, n = 11.
Series [3] has as its system ovariectomized female mice. The series is described as follows: Femoral calcium content in ovariectomized female mice (OCPC method). The following applies: oral, 4 weeks, n = 11.
Series [4] relates to ovariectomized female mice. The series is described as follows: Femoral dry weight in ovariectomized female mice. Conditions: oral, 4 weeks, n = 11.
In series [5] the test system is ovariectomized female mice. The series can be described thus: Trabecular bone density in ovariectomized female mice (CT of left femur). Conditions: oral, 4 weeks, n = 11.
The test system of series [6] is ovariectomized female mice. The series can be described thus: Femoral length and ratio of femoral ash weight to femoral length in ovariectomized female mice. Conditions: oral, 4 weeks, n = 11.
Series [7] relates to ovariectomized female mice. The series can be described thus: Femoral ash weight in ovariectomized female mice. The following applies: oral, 4 weeks, n = 11.
In series [8] the test system is ovariectomized female mice. The series can be described thus: Uterine weight (endometrial hyperplasia side effect) in ovariectomized female mice. Conditions: for Uterine weight (mean ± SD): ovariectomized mice, oral, n = 11.
In series [9] the test system is ovariectomized female mice. The series is described as follows: Pathological sections of oviduct walls, endometria and uterine glands of ovariectomized female mice. Here is the method: Pathological sections of oviduct walls, endometria, and uterine glands of ovariectomized female mice were prepared to evaluate the influence of the complex on the oviduct walls, endometria, and uterine glands of the ovariectomized mice.

Setting [10] is: at both doses of 2.3 μmol/kg/day and 0.23 μmol/kg/day.
[11] abbreviates: ovariectomized mouse treated at 2.3 μmol/kg/day.
Where [12] appears, read: summary of pathological sections FIG. 3A to FIG. 8E.

Structures are written as SMILES. Marks after values point to notes of the source that are not given here.

With `C[C@]12CC[C@@H]3c4ccc(O)cc4CC[C@H]3[C@@H]1CC[C@@H]2O` [17β-estradiol], the “Effect on tail bleeding time (in words)” value in series [1] (setting [10]) was “significantly shortened the tail bleeding time”. The “Bleeding time (tail, mean ± SD)” value is listed as 640.6 ± 189.6^a s in series [1] (dose 0.23 μmol/kg/day) and 659.1 ± 203.8^a s in series [1] (dose 2.3 μmol/kg/day). Further, the “BMC (femoral mineral content, mean ± SD)” value in [2] (dose 0.23 μmol/kg/day) is reported as 0.560 ± 0.041 mg/mg; in [2] (dose 2.3 μmol/kg/day), 0.620 ± 0.020^a mg/mg. Further, the figures for the “Femoral calcium content (mean ± SD)” value in series [3] (dose 0.23 μmol/kg/day) and in series [3] (dose 2.3 μmol/kg/day) were 23.34 ± 0.70% and 24.57 ± 1.85^a %, respectively. The “Femoral dry weight (mean ± SD)” value in series [4] (dose 0.23 μmol/kg/day) is 49.08 ± 6.02^b mg; in series [4] (dose 2.3 μmol/kg/day) it was 54.42 ± 2.96^a mg. In addition, the “Trabecular bone density (mean ± SD)” value in series [5] (dose 0.23 μmol/kg/day) is given as 595.35 ± 30.47^d mg/cm^3; in [5] (dose 2.3 μmol/kg/day) it was 748.57 ± 33.37^a mg/cm^3. The results for the “Ash weight/length (mean ± SD)” value in series [6] (dose 0.23 μmol/kg/day) and in [6] (dose 2.3 μmol/kg/day) were 1.72 ± 0.22 mg/mm and 2.02 ± 0.20^a mg/mm, respectively. Also, the “Femoral ash weight (mean ± SD)” value in series [7] (dose 0.23 μmol/kg/day) is listed as 29.08 ± 5.42^b mg; in [7] (dose 2.3 μmol/kg/day), 33.37 ± 3.21^a mg. The “Effect on uterine weight (in words)” value in series [8] (setting [10]) is listed as “significantly increased the uterine weight”. The “Uterine weight (mean ± SD)” value is 0.200 ± 0.041^a g in series [8] (dose 0.23 μmol/kg) and 0.207 ± 0.045^a g in series [8] (dose 2.3 μmol/kg). In series [9] (setting [11]), the “Thickness of endometrium (pathological section)” value was 23.08 μm. Besides, in [9] (setting [11]), the “Thickness of oviduct wall (pathological section)” value is given as 152.11 μm. For the same compound, in series [9] (setting [11]), the “Uterine gland pathology (in words)” value is given as “the density of the tissue around the uterine gland is significantly reduced”. The “Lesions of uterine glands (in words)” value in series [9] (setting [12]) is on record as “could cause lesions of uterine glands”. Besides, the “Thickening of endometria and oviduct walls (in words)” value in [9] (setting [12]) is “could induce the thickening of endometria and oviduct walls”.
